Legend:
splenic CD8 T cells = assay: ELIspot for interferon γ of splenic CD8 T cells from immunized mice; type: cell-based, BALB/c mice; conditions: spleens seven days after second immunization; in vitro stimulation with immunizing 18-mer, 10 µM
Source text: BALB/c mice were immunized with 18-mer peptides containing Ccdc85c^MUT as well as Ccdc85c^WT as described in Methods. Spleens were harvested seven days after the second immunization and splenic CD8 T cells tested by ELIspot for interferon γ production in response to stimulation in vitro with the peptides used for immunization. […] Since the CD8 response detected in vitro was so modest, CD8 response as detected in vivo in the tumor microenvironment became our focus.
Supplementary Fig. 3. CD8 response to Ccdc85cMUT and Ccdc85cWT peptides. BALB/c mice were immunized twice at a weekly interval with 18-mer peptides containing Ccdc85cWT (left) or Ccdc85cMUT (right) as described in Methods. Spleens were harvested seven days after the second immunization and CD8 T cells stimulated in vitro with the peptides (10 µM concentration) used for immunization, as indicated. CD8 cells were analyzed for release of interferon g. Each dot represents a single mouse. The P values were calculated using two tailed t-test. Data are presented as mean values +/- SD. […]

Meth A [1] = assay: CD4 depletion (GK1.5) in immunized, Meth A-challenged mice; type: in vivo, BALB/cJ mice
Source text: In order to determine if any peptides within Ccdc85c^MUT could be presented by MHC II molecules, we analyzed the interaction of H2-A^d and H2-E^d with TYIRPFETKVK, YIRPFETKVK and IRPFETKVK as well as their wild type counterparts, using a cell-surface density assay. In this assay, β-chains of H2-Ab1^d or H2-Eb1^d are expressed in fusion with the peptide of interest and the amount of cell-surface MHC II, as a measure of intrinsic stability of MHC II, is quantified in engineered conditions. The measured cell-surface MHC density correlates well with the actual affinity of the peptide to MHC II. […] This was observed when CD4 depletion was carried out during the priming phase alone (as in Supplementary Fig. 2b), or throughout the entire experiment including the effector phase (i.e. post tumor challenge).
Supplementary Fig. 2. Assessing CD4 response to Ccdc85c . a Presentation of Ccdc85cMUT and Ccdc85cWT peptides by H2-IA and H2-IE are measured by cell-surface density assay. The y-axis indicates MHC/GFP (ratio of MHC MFI to GFP MFI) for MHC II-peptide, normalized to the MHC/GFP of the negative control peptide, G9, 9-mer all-glycine. Four technical and two independent biological repeats of this experiment have been practiced. The following additional negative control peptides are used: G12 (12-mer all-glycine) and GGS12 (4x(glycine-glycine-serine). b. Naïve BALB/cJ mice were injected with 250 µg of CD4 depleting GK1.5 antibody or isotype control during the priming phase (6 days before the first immunization). Mice were immunized, as described in the Methods, with Ccdc85cMUT and were challenged with 95,000 Meth A cells. The differences between tumor growth curves […]
(1 picture or pasted object on this page, not shown here)

Meth A [2] = conditions: anti-CD8 antibody during the priming phase; control antibody without effect; as previously described; cited from earlier work
Source text: The mutation is heterozygous and the un-mutated as well as the mutated reads are detected in the transcripts. BALB/cJ bone marrow derived dendritic cells (BMDCs) pulsed with an 18-mer peptide with the mutant amino acid near the center ([…]) or un-mutated peptide ([…]), were used to immunize BALB/cJ mice. All mice were challenged with the Meth A cells, and tumor rejection was monitored (Fig. 1b upper panel).

DPSSTYIRPFETKVKLLD [18-mer peptide with the mutant amino acid near the center]
CD8 response (interferon γ ELIspot) (splenic CD8 T cells): very modest but statistically significant CD8 response
effect of CD4 T cell depletion on tumor rejection (Meth A [1]; 250 µg GK1.5, priming phase (6 days before first immunization), 95,000 Meth A cells, listed as Ccdc85cMUT): not statistically significant
effect of CD4 T cell depletion on tumor rejection (Meth A [1]; 250 µg GK1.5, priming phase (6 days before first immunization), 95,000 Meth A cells, listed as Ccdc85c^MUT): did not lead to reproducible and statistically significant abrogation of tumor rejection
effect of CD4 T cell depletion on tumor rejection (Meth A [1]; depletion throughout the entire experiment including the effector phase): did not lead to reproducible and statistically significant abrogation of tumor rejection
effect of CD8 depletion on anti-tumor activity (Meth A [2]): abrogated
